Measured values taken from patent publication US20250109139A1, “TRICYCLIC COMPOUND, AND PREPARATION METHOD THEREFOR AND USE THEREOF” (SHANGHAITECH UNIVERSITY, priority 2022, published 2025).

Key:
dopamine D2 receptors [1] = target: T1, dopamine D2 receptors (Homo sapiens (Human), UniProt P14416); experiment: Dopamine D2 receptor radioligand competition binding assay ([3H]-Methylspiperone); details: [3H]-Methylspiperone 0.3 to 0.5 nM, 293T membranes; read-out: Affinity Ki
Procedure, shortened: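 Membranes from cells transfected with human D2 receptor, PEI-mediated; competition with [3H]-methylspiperone for 2 h at room temperature in the dark.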

[2] = target: T2, 5-hydroxytryptamine 1A (5-HT1A) receptors (Homo sapiens (Human), UniProt P08908); experiment: 5-HT1A receptor Gαi1 BRET (G protein trimer dissociation); type: cell-based; details: relative to endogenous ligand 5-hydroxytryptamine
T2 sequence (P08908 whole entry): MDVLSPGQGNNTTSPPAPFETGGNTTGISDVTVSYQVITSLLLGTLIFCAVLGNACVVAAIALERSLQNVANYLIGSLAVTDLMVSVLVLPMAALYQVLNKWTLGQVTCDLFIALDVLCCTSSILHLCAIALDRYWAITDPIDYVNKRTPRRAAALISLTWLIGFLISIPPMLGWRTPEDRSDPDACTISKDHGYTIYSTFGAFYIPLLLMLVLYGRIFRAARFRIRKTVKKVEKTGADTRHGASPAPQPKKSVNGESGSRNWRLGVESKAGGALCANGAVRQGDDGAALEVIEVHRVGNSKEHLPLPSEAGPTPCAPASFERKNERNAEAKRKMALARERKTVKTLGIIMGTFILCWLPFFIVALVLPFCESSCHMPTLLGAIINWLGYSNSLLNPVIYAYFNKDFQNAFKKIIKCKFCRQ

[3] = target: T2, 5-hydroxytryptamine 1A (5-HT1A) receptors; experiment: 5-HT1A receptor β-arrestin2 BRET (recruitment); type: cell-based; details: for Emax: relative to endogenous ligand 5-hydroxytryptamine
Description: At the same time, in order to examine the downstream β-arrestin2 signaling pathway mediated by 5-HT1A receptors, on the first day, a 6 cm culture dish was used for transfection with 500 ng of 5-HT1A receptors containing C-terminal seaweed luciferase (5HT1AR-Rluc), 500 ng of G protein-coupled receptor kinase 2 (GRK2), 2500 ng of β-arrestin2 containing N-terminal green fluorescent protein (GFP2-ARRB2), and 14 μL of PEI. The next day, the confluent cells of a 6 cm culture dish were digested and reseeded into a 96-well plate with 100 μL of culture medium added to each well. On the third day, the drugs were added for test. The 96-well plate was taken out from the cell incubator to decant the culture medium, 40 µL of the substrate coelenterazine 400a (final concentration of 5 μM) was added to each well, and then 20 μL of different drugs were added sequentially from left to right to ensure that the final concentration of the drug decreased gradually from bottom to top, with two replicates per treatment. Finally, the prepared samples were loaded on machine for test. The machine readout value reflected the recruitment of β-arrestin2 to the membrane or the dissociation of G protein trimer. The former indicated the degree of activation of the β-arrestin2 signaling pathway downstream of the 5-HT1 serotonin 1A receptors, and the latter indicated the degree of activation of the G protein signaling pathway downstream of the serotonin 1A receptors.

5-HT2A receptors = 5-HT2A receptors (Homo sapiens (Human), UniProt P28223); experiment: 5-HT2A receptor radioligand competition binding assay ([3H]-ketanserin); details: for Ki: read-out: Ki
5-HT2A receptors, sequence (P28223 whole entry): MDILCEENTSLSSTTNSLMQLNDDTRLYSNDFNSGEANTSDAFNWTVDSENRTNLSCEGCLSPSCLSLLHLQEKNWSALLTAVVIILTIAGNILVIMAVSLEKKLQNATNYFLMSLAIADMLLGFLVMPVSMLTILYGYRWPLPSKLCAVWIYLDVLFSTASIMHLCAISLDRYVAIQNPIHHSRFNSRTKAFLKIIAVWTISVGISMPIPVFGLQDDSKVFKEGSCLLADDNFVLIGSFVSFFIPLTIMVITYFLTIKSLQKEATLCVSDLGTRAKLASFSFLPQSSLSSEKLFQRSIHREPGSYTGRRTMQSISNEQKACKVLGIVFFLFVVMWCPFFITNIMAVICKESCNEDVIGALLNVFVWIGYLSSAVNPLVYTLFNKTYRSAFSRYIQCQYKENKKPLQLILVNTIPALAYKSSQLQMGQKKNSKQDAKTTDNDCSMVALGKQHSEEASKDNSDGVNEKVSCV
Description: The affinity of the compounds of the present disclosure for 5-HT2A receptors was determined by a radioligand competition binding assay. In the first step, a cell membrane component containing specific 5-HT2A receptor was prepared. A 10 cm dish was used for transfection with […] of 5-HT2A receptors and 40 μL of PEI. After 48 hours, the 10 cm dish was taken out from the cell incubator and the cultured cells had expressed the 5-HT2A receptors. A vacuum pump was used to suck off the culture medium, 3 mL of lysis buffer was added to each culture dish, and the cells were placed in a 4° C. cold room for 10 minutes. After the cells were detached, the cells were transferred to a 15 mL centrifuge tube and centrifuged at 1500 rpm for 5 minutes at 4° C., and the supernatant was discarded. The cell pellet was transferred to a tissue homogenizer, and 3 mL of lysis buffer was added and fully ground until the cells were broken. Then, cell suspension was equally aliquoted into several EP tubes, centrifuged at 12000 rpm for 5 minutes at 4° C., and the supernatant was discarded. The precipitate was the cell membrane component containing the 5-HT2A receptors. […] First, a standard binding buffer was added to the cell membrane component containing the 5-HT2A receptors, and the cell membrane was disrupted and resuspended with an electric tissue homogenizer. 30 μL of membrane protein suspension was added to each well of a 96-well plate. Then, 30 μL of different drugs were added to the 96-well plate sequentially from bottom to top to ensure that the final drug concentrations were 10^−5 M, 10^−6 M, 10^−7 M, 10^−8 M, 10^−9 M, and 0 M, with two replicates per treatment. Next, 30 μL of [^3H]-ketanserin was added to each well of the 96-well plate. The plate was incubated at room temperature in the dark for 2 hours. Detection was conducted. The machine readout value reflected the amount of [^3H]-ketanserin bound on the membrane, and after further data processing, the affinity Ki values of different compounds for the 5-HT2A receptors were obtained.

[4] = system: MK801-induced hyperlocomotion in mice; experiment: Open field test, MK801-induced hyperlocomotion (schizophrenia-like model); type: in vivo, C57B6 male mice
Description: Experimental method: The experimental animals were C57B6 male mice, n=8 in each group. In this model, C57B6 mice were used as experimental animals. Hyperlocomotion of the mice in open field was induced by acute injection of a NMDA antagonist MK801, and modeled to test the inhibitory effect of different compounds on hyperlocomotion phenotype induced by MK801 All mouse behavior experiments were carried out during the light period. The whole process was recorded by the camera, and locomotive data were tracked and analyzed by behavioral tracking software. The compounds were administered intraperitoneally. Immediately after the injection, the mice entered the open field and their movement trajectories were recorded by the camera. After 30 minutes, the mice received 0.2 mg/kg of MK801 by intraperitoneal injection and returned to the open field immediately after administration, and the movement trajectories were further recorded for 120 minutes. The accumulative travelled distance of the mice was counted in a 5-minute bin. Data statistics were performed using Student-t-test analysis, *p<0.05, **p<0.01, ***p<0.001, ****p<0.0001. The total travelled distance of the mice in the 0-45 minute interval after administration of the compounds of the present disclosure at different doses in combination with MK801 (0.2 mg/kg) is shown in Table 10.

dopamine D2 receptors [5] = target: T1, dopamine D2 receptors; experiment: Dopamine D2 receptor Gαi1 BRET (G protein trimer dissociation); type: cell-based; details: for Emax: relative to endogenous ligand dopamine, read-out: Gαi1 BRET Emax % ± SEM; for EC50: unit printed only in Cariprazine cell, read-out: Gαi1 BRET EC50
Procedure, shortened: (§1)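 G-protein assay: cells co-transfected with D2 receptor, Gαi1-Rluc, Gβ3 and Gγ9-GFP (1 μg each); β-arrestin2 assay: D2-Rluc, GRK2 and GFP2-β-arrestin2 co-transfected. Cells were reseeded after one day and tested on day three. Drug dilution series were added in duplicate with coelenterazine 400a (5 μM final), and the BRET signal was read.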

dopamine D2 receptors [6] = target: T1, dopamine D2 receptors; experiment: Dopamine D2 receptor β-arrestin2 BRET (recruitment); type: cell-based; details: for Emax: relative to endogenous ligand dopamine, read-out: β-arrestin2 BRET Emax % ± SEM; for EC50: unit printed only in Cariprazine cell, read-out: β-arrestin2 BRET EC50
Procedure, shortened: as §1

[7] = target: T2, 5-hydroxytryptamine 1A (5-HT1A) receptors; experiment: 5-HT1A receptor radioligand competition binding assay ([3H]-LSD); details: 293T membranes, read-out: Affinity Ki
Description: The affinity of the compounds of the present disclosure for 5-hydroxytryptamine 1A (5-HT1A) receptors was determined by a radioligand competition binding assay.
In the first step, a cell membrane component containing specific 5-HT1A receptors was prepared. […] A vacuum pump was used to suck off the culture medium, 3 mL of lysis buffer was added to each culture dish, and the cells were placed in a 4° C. cold room for 10 minutes. After the cells were detached, the cells were transferred to a 15 mL centrifuge tube and centrifuged at 1500 rpm for 5 minutes at 4° C., and the supernatant was discarded. The cell pellet was transferred to a tissue homogenizer, and 3 mL of lysis buffer was added and fully ground until the cells were broken. Then, cell suspension was equally aliquoted into several EP tubes, centrifuged at 12000 rpm for 5 minutes at 4° C., and the supernatant was discarded. The precipitate was the cell membrane component containing the 5-HT1A receptors.
First, a standard binding buffer was added to the cell membrane component containing the 5-HT1A receptors, and the cell membrane was disrupted and resuspended with an electric tissue homogenizer. 30 μL of membrane protein suspension was added to each well of a 96-well plate. Then, 30 μL of different drugs were added to the 96-well plate sequentially from bottom to top to ensure that the final drug concentrations were 10^−5 M, 10^−6 M, 10^−7 M, 10^−8 M, 10^−9 M, and 0 M, with two replicates per treatment. Next, 30 μL of [^3H]-LSD was added to each well of the 96-well plate. The plate was incubated at room temperature in the dark for 2 hours. Detection was conducted. The machine readout value reflected the amount of [^3H]-LSD bound on the membrane, and after further data processing, the binding affinity Ki values of different compounds for the 5-HT1A receptors were obtained.

[8] = [3H]-ketanserin, 293T membranes

T1 sequence (P14416 whole entry): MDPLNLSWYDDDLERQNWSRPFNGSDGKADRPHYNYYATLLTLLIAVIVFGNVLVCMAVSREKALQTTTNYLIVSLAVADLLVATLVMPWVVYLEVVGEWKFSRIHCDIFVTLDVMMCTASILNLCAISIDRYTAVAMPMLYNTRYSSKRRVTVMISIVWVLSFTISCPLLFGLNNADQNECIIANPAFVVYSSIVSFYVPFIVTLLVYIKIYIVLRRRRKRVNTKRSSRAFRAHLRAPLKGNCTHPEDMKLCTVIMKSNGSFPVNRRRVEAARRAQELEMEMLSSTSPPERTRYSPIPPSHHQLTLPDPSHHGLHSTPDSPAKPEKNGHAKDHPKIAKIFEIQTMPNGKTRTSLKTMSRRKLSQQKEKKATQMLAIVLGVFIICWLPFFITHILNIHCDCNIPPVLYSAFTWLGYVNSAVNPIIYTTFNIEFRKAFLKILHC

Emax [2] | Emax [3] | Emax (dopamine D2 receptors [6]) | EC50 (dopamine D2 receptors [6]) | Ki [7] | SMILES | also measured
81% | 79% | – | – | – | COc1cccc2c1cc1n2CCN(CCNC(=O)C2CCOCC2)C1 [I-C8, N-(2-(9-methoxy-3,4-dihydropyrazino[1,2-a]indol-2(1H)-yl)ethyl)tetrahydro-2H-pyran-4-carboxamide] | Ki (dopamine D2 receptors [1]): 239 nM
– | – | – | – | – | COc1cccc2c3c(oc12)CN(CCCCOc1ccc2c(c1)NC(=O)CC2)CC3 [I-A2, 7-(4-(8-methoxy-3,4-dihydrobenzofuro[2,3-c]pyridin-2(1H)-yl)butoxy)-3,4-dihydroquinolin-2(1H)-one] | affinity for 5-HT2A receptors (in words) (5-HT2A receptors): very weak affinity; pKi ± SEM (5-HT2A receptors; [8]): (5.95 ± 0.05); Ki (5-HT2A receptors; [8]): 1.11 µM; Distance travelled in 45 minutes ([4]; MK801 0.2 mg/kg + compound 1 mg/kg i.p.): 8795.03 cm; Distance travelled in 45 minutes ([4]; MK801 0.2 mg/kg + compound 4 mg/kg i.p.): 6152.62 cm; Distance travelled in 45 minutes ([4]; MK801 0.2 mg/kg + compound 16 mg/kg i.p.): 3028.99 cm
82.2% | 20.6% | – | – | – | CCOc1cccc2c3c(oc12)CN(CCN1CCc2nn(C)c(C)c2C1=O)CC3 [I-A39, 5-(2-(8-ethoxy-3,4-dihydrobenzofuro[2,3-c]pyridin-2(1H)-yl)ethyl)-2,3-dimethyl-2,5,6,7-tetrahydro-4H-pyrazolo[4,3-c]pyridin-4-one] | –
84.3% | – | 21% | 48.8 nM | 0.015 nM | CCOc1cccc2c3c(oc12)CN(CCCCn1ncc(=O)n(C)c1=O)CC3 [I-A43, 2-(4-(8-ethoxy-3,4-dihydrobenzofuro[2,3-c]pyridin-2(1H)-yl)butyl)-4-methyl-1,2,4-triazine-3,5(2H,4H)-dione] | –
– | – | – | – | – | CN(C)C(=O)N[C@H]1CC[C@H](CCN2CCN(c3cccc(Cl)c3Cl)CC2)CC1 [Cariprazine, reference compound] | β-arrestin2 BRET EC50 [3]: Inactive
98.8% | 14.3% | – | – | 0.78 nM | CCOc1cccc2c3c(oc12)CN(CCN1CCCc2c(ccn2C)C1=O)CC3 [I-A41, 5-(2-(8-ethoxy-3,4-dihydrobenzofuro[2,3-c]pyridin-2(1H)-yl)ethyl)-1-methyl-5,6,7,8-tetrahydropyrrolo[3,2-c]azepin-4(1H)-one] | –
100% | 38.7% | 12% | 0.75 nM | – | CCOc1cccc2c3c(oc12)CN(CCNC(=O)c1cccs1)CC3 [I-A36, N-(2-(8-ethoxy-3,4-dihydrobenzofuro[2,3-c]pyridin-2(1H)-yl)ethyl)thiophene-2-carboxamide] | –
102% | 39.8% | 17% | 3.17 nM | – | CCOc1cccc2c3c(oc12)CN(CCNC(=O)c1ccccc1)CC3 [I-A35, N-(2-(8-ethoxy-3,4-dihydrobenzofuro[2,3-c]pyridin-2(1H)-yl)ethyl)benzamide] | –
96.7% | 25.2% | 18% | 56.7 nM | – | CCOc1cccc2c3c(oc12)CN(CCNC(=O)C1CCCC1)CC3 [I-A33, N-(2-(8-ethoxy-3,4-dihydrobenzofuro[2,3-c]pyridin-2(1H)-yl)ethyl)cyclopentanecarboxamide] | –
64.1% | – | 101% | 55 nM | 0.64 nM | CCOc1cccc2c3c(oc12)CN(CCc1ccc2ccc(=O)[nH]c2c1)CC3 [I-A27, 7-(2-(8-ethoxy-3,4-dihydrobenzofuro[2,3-c]pyridin-2(1H)-yl)ethyl)quinolin-2(1H)-one] | Emax (dopamine D2 receptors [5]): 57%; EC50 (dopamine D2 receptors [5]): 45.2 nM
101% | 21% | – | – | 0.42 nM | CCOc1cccc2c3c(oc12)CN(CCN1CCCc2c(cnn2C)C1=O)CC3 [I-A42, 5-(2-(8-ethoxy-3,4-dihydrobenzofuro[2,3-c]pyridin-2(1H)-yl)ethyl)-1-methyl-5,6,7,8-tetrahydropyrazolo[4,3-c]azepin-4(1H)-one] | –
101% | 28.9% | – | – | – | CCOc1cccc2c3c(oc12)CN(CCN1CCCc2ccccc2C1=O)CC3 [I-A40, 2-(2-(8-ethoxy-3,4-dihydrobenzofuro[2,3-c]pyridin-2(1H)-yl)ethyl)-2,3,4,5-tetrahydro-1H-benzo[c]azepin-1-one] | –

SMILES | Emax [2] | Emax [3] | Emax (dopamine D2 receptors [6]) | EC50 (dopamine D2 receptors [6]) | Ki [7] | also measured
CCOc1cccc2c3c(oc12)CN(CCCCOc1ccc2ccc(=O)[nH]c2n1)CC3 [I-A29, 7-(4-(8-ethoxy-3,4-dihydrobenzofuro[2,3-c]pyridin-2(1H)-yl)butoxy)-1,8-naphthyridin-2(1H)-one] | 90.3% | 8.46% | 47% | 10.1 nM | – | Ki (dopamine D2 receptors [1]): 27.7 nM; Emax (dopamine D2 receptors [5]): 40%; EC50 (dopamine D2 receptors [5]): 33.1 nM; affinity for 5-HT2A receptors (in words) (5-HT2A receptors): very weak affinity; Ki (5-HT2A receptors; [8]): 5.52 µM
